The results in this text go back to paper PMC8851282, “Senolysis induced by 25-hydroxycholesterol targets CRYAB in multiple cell types” (iScience, 2022).

In one assay the test system is 15-d-PGJ2. In words: 15-d-PGJ2 ELISA in urine of aged mice given 25HC. Format: in vivo, mouse. The settings on record: 24–26-month-old mice, both genders; urine 12 h after the first treatment with 25HC 50 mg/kg i.p., relative to controls. As for the experimental part: Figure 9 25HC is an in vivo senolytic in tissues of aged mice (A) Timeline of 25HC treatment in aged mice. Young (5 months old) and old (24–26 months old) mice were treated with 25HC or vehicle for 5 consecutive days. (B) Mass of gastrocnemius muscles in male and female mice. Muscle weight was normalized to body weight. (C) Cdkn1a and Cryab mRNA levels in gastrocnemius (Gastroc) and soleus (Sol) muscles. RNA was collected at 7–9 d after the first treatment with 25HC or vehicle. mRNA levels of the indicated genes were quantified by qRT-PCR, and normalized to those of actin mRNA. The average value of young-vehicle was set at 1. (D) 15-d-PGJ2 analysis in urine. […]
Two groups of male and female C57BL/6J mice were used. […] Senescence markers and CRYAB were analyzed using mRNA from gastrocnemius (Gastroc), soleus (So), tibialis anterior (TA), visceral fat (VF), kidney (Ki), liver (Li), lung (Lu), heart (He), and skin (Sk) samples using qRT-PCR (Figures S14, S15, S16, S17, and S18).
Urine was collected at 12 or 24 h after the first treatment with 25HC or vehicle and diluted 10-fold with assay buffer. The amount of 15-d-PGJ2 was measured using a 15-deoxy-Δ^12,14-PGJ2 ELISA kit according to manufactures’ protocol (Enzo Life Sciences).

Assay [1] deals with human cardiac microvascular endothelial cells (hCMECs). In words: Cell viability assay of NS and Doxo- or IR-induced senescent hCMECs treated with 25HC. Format: cell-based. Conditions: 10 μM after 15 days of treatment; Doxo or IR induced senescence. Here is the method:
Figure 7 25HC treatment timeline and its effects on NS and SEN hCMECs, hLSCs, hRPTECs, and hACs All cell types were treated with either DMSO, 250 nM Doxo or 10-Gy IR at the times shown. 25HC treatment was started 24 h after Doxo or IR treatment. Cell viability was measured every 3–5 days for 15 days. Optimal treatment times for maximum senolysis are shown for each cell type: day 15 for hCMECs, day 3 for hLSCs, day 9 for hRPTECs and day 12 for hACs. For qRT-PCR: mean ± SE, n =4, ∗p< 0.05, ∗∗p< 0.01, ∗∗∗p<0.001, ∗∗∗∗p<0.0001 by Dunnett’s multiple comparisons test vs DMSO or NS, For cell viability assays: mean ± SE, n =3, ∗∗p< 0.01, ∗∗∗p<0.001, ∗∗∗∗p<0.0001 vs 0 mM by student’s t test.
All experiments were performed in incubators at 37 °C, 3% O2 and 5% CO2. Senescence was induced by treatment with either Doxo (250 nM for 24 h) ([Demaria et al., 2017]) or X-irradiation (10 Gy) ([Limbad et al., 2020]). […]
Cell viability was assessed using a cell counting kit-8 from Dojindo Molecular Technologies, Inc (Cat CK04-20). […] The supernatant was transferred to a new 96-well plate and absorbance read at 450 nm as recommended in the product datasheet. […]
Supplementary Fig. 10 (related to Fig. 6-7). […] Cel l vi abi l i ty was measured every 3–5 days until 15 days. […] Cel l vi abi l i ty was measured every 3–5 days until 15 days. […]

Regarding `C[C@H](CCCC(C)(C)O)[C@H]1CC[C@H]2[C@@H]3CC=C4C[C@@H](O)CC[C@]4(C)[C@H]3CC[C@]12C` [25HC, 25-hydroxycholesterol], the “15-d-PGJ2 level in urine” value with 15-d-PGJ2 was “greater”. For the same compound, the “senolysis in hCMECs” value in assay [1] is “induced significant senolysis”.
